The record followed here is US11884631B1 (priority 2023, dated 2024).

The test system of the assay is multidrug-resistant (MDR) strains of Mycobacterium tuberculosis. In words: microbe, parasite or virus in culture. The assay is classed as cell-based. The note with it: read-out: MIC (μg/mL) MDR Strain.

On to `Cc1ccc2c(ccc[n+]2CC(=O)c2ccccc2[N+](=O)[O-])c1.[Br-]` [Compound 3a, 6-Methyl-1-(2-(2-nitrophenyl)-2-oxoethyl)quinolin-1-ium bromide], for which the MIC came to 64 µg/mL.
Under `Cc1ccc2c(ccc[n+]2CC(=O)c2ccc(F)cc2)c1.[Br-]` [Compound 3b, 1-(2-(4-Fluorophenyl)-2-oxoethyl)-6-methylquinolin-1-ium bromide] stands 16 µg/mL.
Under `Cc1ccc2c(ccc[n+]2CC(=O)c2cc(C(F)(F)F)cc(C(F)(F)F)c2)c1.[Br-]` [Compound 3c, 1-(2-(3,5-Bis(trifluoromethyl)phenyl)-2-oxoethyl)-6-methylquinolin-1-ium bromide] stands 32 µg/mL.
